Test results reported in patent US20230093099A1, “COMPOUNDS AND METHODS OF TREATING CANCERS” (CULLGEN (SHANGHAI), INC., priority 2019, published 2023).

How the values were obtained:
Format in all cases: cell-based
[1] = test system: MOLM-13 cells; experiment: Cell viability assay (CellTiter-Glo) in MOLM-13 cells; settings: Homo sapiens, 72 h, MOLM-13, AML, 3 days
Procedure: (§1) MV4;11, RS4;11, Kasumi-1, HEL and other cells were treated with NVP-BSK805, TG101209 or selected degraders for 3 days at indicated concentrations following a 3-fold serial dilution.
(§2) HEL, RS4;11, MV4;11, Kasumi-1 and other cells were cultured at 37° C. with 5% CO2 in RPMI 1640 or DMEM Medium supplemented with 10% fetal bovine serum. Cells were authenticated using the short tandem repeat (STR) assays. Mycoplasma test results were negative.
(§3) Cells were seeded at a density of 5000 cells per well in 96-well assay plates and treated with test compounds following a 8-point or 12-point 3-fold serial dilution. Three days later, cell viability was determined using the CellTiter-Glo assay kit according to the manufacturer's instructions. The dose-response curves were determined and IC50 values were calculated using the GraphPad Prism software following a nonlinear regression (least squares fit) method.

[2] = target: T1, JAK3 (Homo sapiens, UniProt P52333); experiment: Immunoblot of JAK3 protein level in HEL cells; settings: immunoblot (FIG. 1)
T1 construct: immunoblot of JAK1/2/3 proteins expressed in HEL cells; endogenous in cells; host or cells: HEL cells
T1 sequence (P52333 1-1124): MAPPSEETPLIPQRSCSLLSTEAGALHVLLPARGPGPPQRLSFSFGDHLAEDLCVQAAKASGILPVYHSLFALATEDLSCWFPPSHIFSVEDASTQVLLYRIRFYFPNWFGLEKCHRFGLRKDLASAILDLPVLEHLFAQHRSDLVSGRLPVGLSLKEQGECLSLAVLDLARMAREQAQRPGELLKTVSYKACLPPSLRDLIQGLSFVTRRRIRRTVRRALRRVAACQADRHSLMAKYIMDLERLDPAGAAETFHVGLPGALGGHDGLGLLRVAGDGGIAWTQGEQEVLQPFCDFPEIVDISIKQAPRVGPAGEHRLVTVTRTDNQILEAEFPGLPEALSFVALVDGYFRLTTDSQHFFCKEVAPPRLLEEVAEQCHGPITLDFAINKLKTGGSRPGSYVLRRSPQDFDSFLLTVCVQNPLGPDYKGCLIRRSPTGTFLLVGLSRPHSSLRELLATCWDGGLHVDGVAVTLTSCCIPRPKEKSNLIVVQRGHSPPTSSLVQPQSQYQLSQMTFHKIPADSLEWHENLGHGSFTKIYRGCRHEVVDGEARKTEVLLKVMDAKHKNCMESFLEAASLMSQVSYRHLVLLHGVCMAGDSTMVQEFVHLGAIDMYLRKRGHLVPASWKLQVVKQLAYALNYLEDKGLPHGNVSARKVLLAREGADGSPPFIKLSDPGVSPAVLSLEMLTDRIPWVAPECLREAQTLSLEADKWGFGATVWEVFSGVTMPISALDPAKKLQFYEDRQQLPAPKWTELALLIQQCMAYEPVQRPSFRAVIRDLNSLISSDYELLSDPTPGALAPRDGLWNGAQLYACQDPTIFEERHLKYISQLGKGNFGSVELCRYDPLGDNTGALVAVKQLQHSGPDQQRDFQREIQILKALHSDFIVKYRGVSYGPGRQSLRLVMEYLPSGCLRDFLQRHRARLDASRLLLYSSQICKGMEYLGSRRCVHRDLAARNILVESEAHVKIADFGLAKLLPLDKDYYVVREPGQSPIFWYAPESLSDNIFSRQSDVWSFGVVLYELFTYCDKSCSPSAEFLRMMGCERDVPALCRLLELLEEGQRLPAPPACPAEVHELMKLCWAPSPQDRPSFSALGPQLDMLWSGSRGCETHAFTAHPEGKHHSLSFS
Procedure: (§4) To confirm JA-189 and JA-213 are true JAK degraders, HEL cell were treated with these two compounds at various compounds concentrations.
as §2
(§5) Rabbit anti-JAK1 antibody (3344S), anti-JAK2 antibody (3230S), anti-JAK3 antibody (8827S), anti-TYK2 antibody (14193S), anti-FLT3 antibody (3462S), anti-RET antibody (14556S), anti-phospho-STAT3 (Tyr705) antibody (9145S) and anti-phospho-STAT5 (Tyr694) antibody (4322S) were purchased from Cell Signaling Technology. Rabbit anti-GSPT1 antibody (ab126090) was purchased from Abcam. HRP-conjugated anti-α-tubulin antibody was produced in house. Media and other cell culture reagents were purchased from Thermo Fisher. The CellTiter-Glo Luminescent Assay kit was purchased from Promega.
(§6) Cultured cells were washed with cold PBS once and lysed in cold RIPA buffer supplemented with protease inhibitors and phosphatase inhibitors (Beyotime Biotechnology). […] Total protein concentrations in the lysates were determined by BCA assays (Beyotime Biotechnology). […] Protein bands were quantitated using the accompanied software provided by Bio-Rad.

[3] = test system: Jurkat cells; experiment: Cell viability assay (CellTiter-Glo) in Jurkat cells; settings: Homo sapiens, 72 h, T-ALL, 3 days
Procedure: as §1, §2, §3

[4] = test system: MM.1S cells; experiment: Cell viability assay (CellTiter-Glo) in MM.1S cells; settings: Homo sapiens, MM1.S, 72 h, Multiple Myeloma, 3 days
Procedure: as §1, §2, §3

[5] = target: T2, JAK1 (Homo sapiens, UniProt P23458); experiment: Immunoblot of JAK1 protein level in RS4;11 cells; settings: 24 hours; for JAK1 protein level: immunoblot (FIG. 2)
T2 construct: immunoblot of JAK1/3 proteins expressed in RS4;11 cells; endogenous in cells; host or cells: RS4;11 cells
Procedure: RS4;11 cells were treated with compounds at indicated concentrations for 24 hours. […] The concentrations required to reduce JAK1 by 50% (DC50) were below 5 nM and 35 nM for compound JA-189 and JA213, respectively.
as §2, §5
Cultured cells were washed with cold PBS once and lysed in cold RIPA buffer supplemented with protease inhibitors and phosphatase inhibitors (Beyotime Biotechnology). The solutions were then incubated at 4° C. for 30 minutes with gentle agitation to fully lyse cells. Cell lysates were centrifuged at 13,000 rpm for 10 minutes at 4° C. and pellets were discarded. Total protein concentrations in the lysates were determined by BCA assays (Beyotime Biotechnology). Cell lysates were mixed with Laemmli loading buffer to 1× and heated at 99° C. for 5 min. Proteins were resolved on SDS-PAGE and visualized by chemiluminescence. Images were taken by a ChemiDoc MP Imaging system (Bio-Rad). Protein bands were quantitated using the accompanied software provided by Bio-Rad.

[6] = test system: MV4;11 cells; experiment: Cell viability assay (CellTiter-Glo) in MV4;11 cells; settings: for IC50: Homo sapiens, 72 h, MV4;11, AML, cell viability, 3 days; for cell viability inhibition in combination with pomalidomide: MV4;11, 3 days, pomalidomide at 10 μM (FIG. 4)
Procedure: as §1, §2, §3

[7] = test system: HEL cells; experiment: Cell viability assay (CellTiter-Glo) in HEL cells; settings: 3 days; for cell viability inhibition in combination with pomalidomide: pomalidomide at 10 μM (FIG. 4); for IC50: Homo sapiens, 72 h, erythroleukemia, cell viability
Procedure: as §1, §2, §3

[8] = target: T1, JAK3; experiment: Immunoblot of JAK3 protein level in RS4;11 cells; settings: immunoblot (FIG. 2)
Procedure: as §4, §2, §5, §6

[9] = test system: p-STAT5; experiment: Immunoblot of p-STAT5 (downstream signaling) in HEL cells; settings: immunoblot (FIG. 1)
Procedure: as §4, §2, §5, §6

T2 sequence (P23458 whole entry): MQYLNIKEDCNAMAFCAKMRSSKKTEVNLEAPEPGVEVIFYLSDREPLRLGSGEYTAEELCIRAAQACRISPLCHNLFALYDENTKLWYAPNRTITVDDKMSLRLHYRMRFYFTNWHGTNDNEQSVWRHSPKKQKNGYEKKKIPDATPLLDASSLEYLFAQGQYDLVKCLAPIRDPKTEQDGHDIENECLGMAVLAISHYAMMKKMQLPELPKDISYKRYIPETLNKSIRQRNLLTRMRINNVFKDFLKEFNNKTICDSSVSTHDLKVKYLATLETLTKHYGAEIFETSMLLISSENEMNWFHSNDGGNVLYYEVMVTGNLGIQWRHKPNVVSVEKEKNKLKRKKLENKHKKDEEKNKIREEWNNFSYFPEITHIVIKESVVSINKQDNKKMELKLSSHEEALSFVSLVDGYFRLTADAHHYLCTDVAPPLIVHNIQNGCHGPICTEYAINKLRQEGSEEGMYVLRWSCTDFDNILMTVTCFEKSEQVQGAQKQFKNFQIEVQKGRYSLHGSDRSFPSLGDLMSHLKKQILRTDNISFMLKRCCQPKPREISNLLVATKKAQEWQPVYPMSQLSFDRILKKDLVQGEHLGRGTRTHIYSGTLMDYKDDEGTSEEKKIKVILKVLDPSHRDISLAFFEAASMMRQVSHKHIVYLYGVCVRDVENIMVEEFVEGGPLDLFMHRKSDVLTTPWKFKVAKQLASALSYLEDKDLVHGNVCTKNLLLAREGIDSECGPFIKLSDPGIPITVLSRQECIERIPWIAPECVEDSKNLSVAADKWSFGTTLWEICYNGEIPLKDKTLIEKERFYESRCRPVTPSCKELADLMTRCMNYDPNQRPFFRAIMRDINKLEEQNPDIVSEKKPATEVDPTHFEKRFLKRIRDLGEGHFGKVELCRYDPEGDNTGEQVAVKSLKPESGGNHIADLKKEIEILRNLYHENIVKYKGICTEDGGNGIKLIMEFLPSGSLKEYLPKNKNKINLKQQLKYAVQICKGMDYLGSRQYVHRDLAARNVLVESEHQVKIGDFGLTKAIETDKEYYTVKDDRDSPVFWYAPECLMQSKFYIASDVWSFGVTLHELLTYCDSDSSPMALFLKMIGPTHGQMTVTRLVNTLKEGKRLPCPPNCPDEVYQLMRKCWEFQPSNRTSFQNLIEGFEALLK

| SMILES | IC50 [1] | JAK3 protein level [2] | IC50 [3] | IC50 [4] | JAK1 protein level [5] | IC50 [6] | cell viability inhibition in combination with pomalidomide [6] | cell viability inhibition in combination with pomalidomide [7] | IC50 [7] | JAK3 protein level [8] | down stream signaling, p-STAT5 band [9] | DC50 ([5]; immunoblot, read-out: concentration required to reduce JAK1 by 50% (DC50)) |
| --- | --- | --- | --- | --- | --- | --- | --- | --- | --- | --- | --- | --- |
| CS(=O)(=O)c1ccc(-c2cccc3nc(Nc4ccc(N5CCN(CC(=O)NCCCCCCCCNc6ccc7c(c6)C(=O)N(C6CCC(=O)NC6=O)C7=O)CC5)cc4)nn23)cc1 (centres unmarked) [JA-213] | 0.0274 µM | able to reduce JAK1, JAK2 and JAK3 protein levels | 0.0627 µM | 0.0231 µM | even better activity in reducing the JAK1 and JAK3 protein levels | 0.0196 µM | greatly reduce the potencies of the degraders | greatly reduce the potencies of the degraders | 0.0821 µM | even better activity in reducing the JAK1 and JAK3 protein levels | weaker bands of p-STAT3 and p-STAT5 |  |
| O=C1CCC(N2C(=O)c3ccc(NCCCCCC(=O)N4CCC(n5cc(-c6cnc7cccc(-c8cc(F)c(CN9CCOCC9)c(F)c8)c7n6)cn5)CC4)cc3C2=O)C(=O)N1 (centres unmarked) [JA-189, 5-((6-(4-(4-(8-(3,5-difluoro-4-(morpholinomethyl)phenyl)quinoxalin-2-yl)-1H-pyrazol-1-yl)piperidin-1-yl)-6-oxohexyl)amino)-2-(2,6-dioxopiperidin-3-yl)isoindoline-1,3-dione] | 0.0208 µM | able to reduce JAK1, JAK2 and JAK3 protein levels | 0.0342 µM | 0.00227 µM | even better activity in reducing the JAK1 and JAK3 protein levels | 0.00793 µM | greatly reduce the potencies of the degraders | greatly reduce the potencies of the degraders | 0.177 µM | even better activity in reducing the JAK1 and JAK3 protein levels | weaker bands of p-STAT3 and p-STAT5 | < 0.005 µM |
